# Measured values reported in US5384408A, “Substituted pyrazine and its salts, compositions containing them and their use in medicine” (priority 1993, dated 1995).
# “Also recorded” adds a separate entry of the source. Like-named read-outs stand apart in the source and are kept apart here.
# Columns and labels:
# [1] = target: T1, M1 (ganglion) (Rattus norvegicus, UniProt P08482); assay: functional selectivity, ganglion M1 agonist activity (methods of J. Med. Chem. 1987, 30, 969-975); type: biochemical
# T1 construct: as measured in the rat ganglion; from tissue; host or cells: rat ganglion
# T1 sequence (P08482 1-460): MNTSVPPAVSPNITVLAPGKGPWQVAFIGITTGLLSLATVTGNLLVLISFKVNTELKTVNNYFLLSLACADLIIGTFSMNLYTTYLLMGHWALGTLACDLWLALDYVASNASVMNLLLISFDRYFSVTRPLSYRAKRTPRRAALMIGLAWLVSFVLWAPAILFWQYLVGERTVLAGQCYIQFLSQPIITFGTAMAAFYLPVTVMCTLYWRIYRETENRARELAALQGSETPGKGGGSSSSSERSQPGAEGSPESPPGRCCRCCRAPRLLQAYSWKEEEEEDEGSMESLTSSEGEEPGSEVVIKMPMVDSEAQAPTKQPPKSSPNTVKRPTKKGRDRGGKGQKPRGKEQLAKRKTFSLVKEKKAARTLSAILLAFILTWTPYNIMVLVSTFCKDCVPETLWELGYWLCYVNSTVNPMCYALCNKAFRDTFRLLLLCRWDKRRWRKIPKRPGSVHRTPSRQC
# From the text: (§1) European Patent Application No. 89200147 (Publication No. 327155) discloses a class of pyrazines, pyridazines or pyrimidines, and salts and prodrugs thereof, substituted on one of the ring carbon atoms thereof with a non-aromatic azacyclic or azabicyclic ring system; and independently substituted on each of the other ring carbon atoms with a substituent of low lipophilicity or a hydrocarbon substituent, which compounds stimulate cholinergic transmission.
# (§2) 1. By the methods disclosed in J. Med. Chem. (1987), 30, 969-975 was determined the functional selectivity of compound (I): […]
# [2] = target: T2, M3 (ileum) (Cavia porcellus, UniProt H0W1Z3); assay: functional selectivity, ileum M3 antagonist activity (methods of J. Med. Chem. 1987, 30, 969-975); type: biochemical, guinea pig
# T2 construct: guinea pig heart and guinea pig ileum; from tissue; host or cells: guinea pig ileum
# From the text: as §1, §2
# [3] = target: T3, M2 (heart) (Cavia porcellus, UniProt H0VRN8); assay: functional selectivity, heart M2 antagonist activity (methods of J. Med. Chem. 1987, 30, 969-975); type: biochemical, guinea pig
# T3 construct: as measured in the guinea pig heart; from tissue; host or cells: guinea pig heart
# T3 sequence (H0VRN8 1-466): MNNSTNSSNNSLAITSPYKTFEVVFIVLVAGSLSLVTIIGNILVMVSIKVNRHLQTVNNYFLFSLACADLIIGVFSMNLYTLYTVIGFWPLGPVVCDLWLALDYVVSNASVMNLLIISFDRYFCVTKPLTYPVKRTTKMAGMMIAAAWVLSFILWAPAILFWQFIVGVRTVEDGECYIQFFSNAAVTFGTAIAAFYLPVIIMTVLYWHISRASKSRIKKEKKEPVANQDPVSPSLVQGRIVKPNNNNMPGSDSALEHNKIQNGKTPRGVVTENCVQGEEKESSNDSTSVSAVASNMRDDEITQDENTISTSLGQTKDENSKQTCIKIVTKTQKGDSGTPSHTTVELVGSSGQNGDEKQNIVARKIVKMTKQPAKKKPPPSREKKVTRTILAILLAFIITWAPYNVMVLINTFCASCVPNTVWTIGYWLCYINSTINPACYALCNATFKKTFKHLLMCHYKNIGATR
# From the text: as §1, §2
# [4] = tested on: intraocular pressure; assay: Glaucoma method: intraocular pressure in African Green monkeys; type: in vivo
# Description: Male or female African Green monkeys (2.0-4.5 kg) were fasted following their afternoon feeding on the day prior to the experiment. The monkeys were anaesthetised in their cages with approximately 10 mg/kg i.m. ketamine HCl (Vetalar or Ketaset). Once sedated, the animals were restrained in monkey chairs and brought to the laboratory. One drop of 0.5% proparacaine (Ophthetic) was instilled into each eye. After 30 seconds, intraocular pressure (IOP) determinations were taken in each eye (control or "0" time reading) using a Digilab Modular One Pneuma Tonometer. Both eyes were then flushed with saline. Vehicle or test agent (0.0005-2.0%) was administered (25 μl) into the cul-de-sac of both eyes and the IOP was determined at 0.5 and 1.0 hour and at hourly intervals thereafter for up to 5 hours and compared to the control IOP. For ocular instillation, 0.5% hydroxyethylcellulose (HEC) was employed as the vehicle. Supplemental doses of 10 mg or more/animal i.m. ketamine HCl were given 3-5 minutes prior to IOP determinations. Proparacaine HCl (0.5%) (one drop/eye) was also instilled immediately prior to IOP determinations. Following the final IOP determination, both eyes were flushed liberally with saline and a sterile ophthalmic ointment (Ilotycin, erythromycin, 5 mg/gm) was applied. […] Pupil diameter was measured under standard laboratory lighting conditions using a millimeter ruler. […]
# [5] = target: T4, M1 muscarinic receptor (Rattus norvegicus, UniProt P08482); assay: M1 muscarinic activity (method of Newberry et al.); type: biochemical
# T4 construct: as measured in the rat ganglion; from tissue
# T4 sequence (P08482 1-460): T1 sequence (P08482 1-460)
# From the text: as §1
# The following two compounds: 3(R)-[2-(6-trifluoromethyl) pyrazinyl]-1-azabicyclo[2.2.2]octane (Compound 1), and 3(R)-[2-(6chloro)pyrazinyl]-1-azabicyclo[2.2.2]octane (Compound 2) were tested for muscarinic activity using the method of Newberry, et al. (Br. J. Pharmacol, 1987, pp. 817-876). The specific M1 muscarinic activities of Compound 1 and Compound 2 were determined and the results are as follows: […]
# [6] = tested on: M3 muscarinic receptor; assay: M3 muscarinic activity, ileum preparation (method of Freedman et al.); type: biochemical, guinea pig; conditions: versus reference 6-Cl compound
# [7] = target: T5, M3 muscarinic receptor (Cavia porcellus, UniProt H0W1Z3); assay: as above; type: biochemical, guinea pig; conditions: for M3 receptor action (in words): ileum assay
# T5 construct: involving ileum preparation; from tissue; host or cells: ileum (guinea pig by b7)
# [8] = listed as 6-C1 reference compound
# T5 sequence (H0W1Z3 1-590): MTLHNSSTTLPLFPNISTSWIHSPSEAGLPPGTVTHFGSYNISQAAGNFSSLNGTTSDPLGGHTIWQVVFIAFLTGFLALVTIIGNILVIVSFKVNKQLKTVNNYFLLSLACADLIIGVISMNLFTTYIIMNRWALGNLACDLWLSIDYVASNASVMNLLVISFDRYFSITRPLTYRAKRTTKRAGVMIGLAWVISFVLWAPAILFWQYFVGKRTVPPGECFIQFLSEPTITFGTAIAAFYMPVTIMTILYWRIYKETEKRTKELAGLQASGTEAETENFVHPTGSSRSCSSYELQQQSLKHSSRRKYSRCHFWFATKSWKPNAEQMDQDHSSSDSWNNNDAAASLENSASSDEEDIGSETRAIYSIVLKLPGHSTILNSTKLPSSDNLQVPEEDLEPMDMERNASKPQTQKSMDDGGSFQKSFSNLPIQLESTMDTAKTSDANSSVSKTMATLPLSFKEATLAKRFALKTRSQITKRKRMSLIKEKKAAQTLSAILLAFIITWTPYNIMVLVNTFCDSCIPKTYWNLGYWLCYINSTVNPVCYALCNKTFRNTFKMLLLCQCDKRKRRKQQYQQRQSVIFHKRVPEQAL
# T2 sequence (H0W1Z3 1-590): as above
smiles,measurement,setting,value
"FC(F)(F)c1cncc(C2CN3CCC2CC3)n1 (racemic) [(±) racemate, (±)-3-[2-(6-Trifluoromethylpyrazin)yl]-1-azabicyclo[2.2.2]octane]",EC50,[1],500 nM
same,Kb,[2],79.4 nM
same,Kb,[3],25.1 nM
FC(F)(F)c1cncc([C@@H]2CN3CCC2CC3)n1 [(-) base isomer],Ganglion M1 (EC50),[1],no agonist effect
same,Kb,"[2]; ileum, antagonist, read-out: Ileum M3 (pA2) (converted)",63.1 nM
same,Kb,"[3]; heart, antagonist, read-out: Heart M2 (pA2) (converted)",100 nM
"FC(F)(F)c1cncc([C@H]2CN3CCC2CC3)n1 [(I): (+) base isomer, (R)-(+)-3-[2-(6-Trifluoromethylpyrazin)yl]-1-azabicyclo[2.2.2]octane]",Change in IOP (maximum mm Hg change in intraocular pressure),"[4]; 0.05%, 25 μl into cul-de-sac of both eyes, up to 5 hours",-3.5 mm Hg
same,intraocular pressure lowering (in words),[4]; glaucoma test,positive lowering of intraocular pressure
same,EC50,[1],200 nM
same,Kb,[2],15.8 nM
same,EC50,[5],200 nM
same,M1 muscarinic activity (in words),[5]; listed as 6-CF3 compound,retains M 1 muscarinic agonist activity comparable to that of the reference 6-C1 compound
same,M1 muscarinic activity (in words),[5]; listed as Compound 1,possess M1 muscarinic activity
same,Kb,[3],15.8 nM
same,"selectivity of action, M1 over M3 (in words)",[6],significantly greater selectivity of action
same,Kb,[7],15.8 nM
same,M3 receptor action (in words),[7]; listed as 6-CF3 compound,not an agonist at the M3 receptor; also recorded: not an agonist of M3 receptors
same,M3 receptor action (in words),[7]; listed as Compound 1,acts as antagonist on M3 receptors
"Clc1cncc([C@H]2CN3CCC2CC3)n1 [Compound 2, 3(R)-[2-(6chloro)pyrazinyl]-1-azabicyclo[2.2.2]octane, reference compound]",M1 muscarinic activity (in words),[5],possess M1 muscarinic activity
same,M1 muscarinic activity (in words),[5]; [8],agonist on M1 receptors
same,EC50,[7],30 nM
same,M3 receptor action (in words),[7],M3 receptor agonist
same,M3 receptor action (in words),[7]; [8],agonist on M3 receptors
same,M3 muscarinic activity pA2,"[7]; ileum preparation, antagonist",no measurable pA2 data
